The values below come from patent publication US20260166128A1, “HUMAN AMYLIN ANALOG, AND DERIVATIVE THEREOF AND USE THEREOF” (priority 2022, published 2026).

This test has as its target T1, human amylin receptor (Homo sapiens, UniProt O60896+P30988).
T1 construct: host or cells: CHO-K1/Ga15/AMY3 cells, further stably transfected with a CRE-luciferase plasmid
T1 sequence (P30988 25-474): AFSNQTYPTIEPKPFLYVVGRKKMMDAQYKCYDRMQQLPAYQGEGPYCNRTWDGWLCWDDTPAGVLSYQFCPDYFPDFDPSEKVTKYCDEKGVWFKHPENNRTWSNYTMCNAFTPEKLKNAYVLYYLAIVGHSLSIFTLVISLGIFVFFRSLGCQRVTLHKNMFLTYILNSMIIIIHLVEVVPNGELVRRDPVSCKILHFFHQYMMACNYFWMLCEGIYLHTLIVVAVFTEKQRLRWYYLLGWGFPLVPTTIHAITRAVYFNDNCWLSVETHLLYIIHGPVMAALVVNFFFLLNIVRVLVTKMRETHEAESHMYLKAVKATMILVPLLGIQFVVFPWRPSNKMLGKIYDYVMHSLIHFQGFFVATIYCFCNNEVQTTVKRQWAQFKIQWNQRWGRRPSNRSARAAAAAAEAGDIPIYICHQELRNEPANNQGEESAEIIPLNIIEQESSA
T1 sequence (O60896 24-148 partner): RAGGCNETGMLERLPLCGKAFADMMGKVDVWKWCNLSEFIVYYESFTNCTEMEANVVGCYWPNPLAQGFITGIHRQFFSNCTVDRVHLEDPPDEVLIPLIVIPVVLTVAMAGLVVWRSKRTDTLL
In words: Luciferase assay of amylin derivatives in amylin receptor/CRE-luc CHO cell line. Format: cell-based. The note with it: CHO-K1/Ga15/AMY3 CRE-luc cells, 24 hours incubation, F12 medium containing 10% FBS; read-out: EC50.

The term EC50 denotes the concentration giving half of the maximal effect.

SMILES strings stand for the structures. Numbered stars: 1 amine (or outer) side, 2 acyl side, 3 side chain; on linkers, the order of the positions; unused ones are H or OH. Bridge positions count the residues as written; N and C are the ends. Square brackets hold non-standard residues; d marks the D form. Side chains are listed from the residue outwards. Peptide text beside a SMILES is read from it. * marks the point of attachment. C20 diacid = O=C(O)CCCCCCCCCCCCCCCCCCC(=O)*; γGlu = O=C(O)[C@H](CCC(=O)[*:2])N[*:1]; cisHyp = O=C(O)[C@@H]1C[C@H](O)CN1; Hyp = O=C(O)[C@@H]1C[C@@H](O)CN1; Dap = NC[C@H](N)C(=O)O; AEEA = NCCOCCOCC(=O)O; Inp = O=C(O)C1CCNCC1

Experimental: The experiment was intended to detect the activity or efficacy of the amylin derivatives on a human amylin receptor in vitro by luciferase assay.
50 μL of growth medium (F12 medium containing 10% FBS) was added into each well of a white 96-well plate, and the stably transfected amylin/CRE-lue CHO cells were inoculated into the white 96-well plate at a density of about 20,000 cells/well for activity determination.

Regarding `CC[C@H](C)[C@H](NC(=O)[C@@H]1CCCN1C(=O)[C@H](CCCCNC(=O)CC[C@H](NC(=O)CCCCCCCCCCCCCCCCCCC(=O)O)C(=O)O)NC(=O)[C@H](CC(C)C)NC(=O)[C@H](CC(N)=O)NC(=O)[C@H](CC(N)=O)NC(=O)[C@H](CO)NC(=O)[C@H](CO)NC(=O)[C@H](Cc1c[nH]cn1)NC(=O)[C@H](CCCNC(=N)N)NC(=O)[C@H](CC(C)C)NC(=O)[C@H](Cc1ccccc1)NC(=O)[C@H](CC(=O)O)NC(=O)[C@H](C)NC(=O)[C@H](CC(C)C)NC(=O)[C@H](CCCNC(=N)N)NC(=O)[C@H](CCC(N)=O)NC(=O)[C@@H](NC(=O)[C@H](C)NC(=O)[C@@H]1CSSC[C@H](NC(=O)[C@@H](N)CC(=O)O)C(=O)N[C@@H](CC(N)=O)C(=O)N[C@@H]([C@@H](C)O)C(=O)N[C@@H](C)C(=O)N[C@@H]([C@@H](C)O)C(=O)N1)[C@@H](C)O)C(=O)N[C@@H](CC(C)C)C(=O)N1CCC[C@H]1C(=O)N1CCC[C@H]1C(=O)N[C@H](C(=O)N[C@@H](CC(N)=O)C(=O)N[C@H](C(=O)NCC(=O)N[C@@H](CO)C(=O)N[C@@H](CC(N)=O)C(=O)N[C@H](C(=O)N1C[C@H](O)C[C@H]1C(N)=O)[C@@H](C)O)C(C)C)[C@@H](C)O` [PD079] (H-DCNTATCATQRLADFLRHSSNNLK([γGlu-C20 diacid])PILPPTNVGSNT[Hyp]-NH2; disulfide 2-7), the concentration for a half-maximal effect (EC50) was 0.131 nM.

For `CC[C@H](C)[C@H](NC(=O)[C@@H]1CCCN1C(=O)[C@H](CCCCN)NC(=O)[C@H](CC(C)C)NC(=O)[C@H](CC(N)=O)NC(=O)[C@H](CC(N)=O)NC(=O)[C@H](CO)NC(=O)[C@H](CO)NC(=O)[C@H](Cc1c[nH]cn1)NC(=O)[C@H](CCCNC(=N)N)NC(=O)[C@H](CC(C)C)NC(=O)[C@H](Cc1ccccc1)NC(=O)[C@H](CC(=O)O)NC(=O)[C@H](C)NC(=O)[C@H](CC(C)C)NC(=O)[C@H](CCCNC(=N)N)NC(=O)[C@H](CCC(N)=O)NC(=O)[C@@H](NC(=O)[C@H](C)NC(=O)[C@@H]1CSSC[C@H](NC(=O)[C@H](CCCCN)NC(=O)C2CCN(C(=O)COCCOCCNC(=O)COCCOCCNC(=O)CCCCCCCCCCCCCCCCCCC(=O)O)CC2)C(=O)N[C@@H](CC(N)=O)C(=O)N[C@@H]([C@@H](C)O)C(=O)N[C@@H](C)C(=O)N[C@@H]([C@@H](C)O)C(=O)N1)[C@@H](C)O)C(=O)N[C@@H](CC(C)C)C(=O)N1CCC[C@H]1C(=O)N1CCC[C@H]1C(=O)N[C@H](C(=O)N[C@@H](CC(N)=O)C(=O)N[C@H](C(=O)NCC(=O)N[C@@H](CO)C(=O)N[C@@H](CC(N)=O)C(=O)N[C@H](C(=O)N1CCC[C@H]1C(N)=O)[C@@H](C)O)C(C)C)[C@@H](C)O` [PD192] ({C20 diacid-AEEA-AEEA-Inp}-KCNTATCATQRLADFLRHSSNNLKPILPPTNVGSNTP-NH2; disulfide 2-7 (inferred)), the EC50 turned out to be 0.087 nM.

As to `CC[C@H](C)[C@H](NC(=O)[C@@H]1CCCN1C(=O)[C@H](CCCCNC(=O)CC[C@H](NC(=O)CCCCCCCCCCCCCCCCCCC(=O)O)C(=O)O)NC(=O)[C@H](CC(C)C)NC(=O)[C@H](CC(N)=O)NC(=O)[C@H](CC(N)=O)NC(=O)[C@H](CO)NC(=O)[C@H](CO)NC(=O)[C@H](Cc1c[nH]cn1)NC(=O)[C@H](CCCNC(=N)N)NC(=O)[C@H](CC(C)C)NC(=O)[C@H](Cc1ccccc1)NC(=O)[C@H](CC(=O)O)NC(=O)[C@H](C)NC(=O)[C@H](CC(C)C)NC(=O)[C@H](CCCNC(=N)N)NC(=O)[C@H](CCC(N)=O)NC(=O)[C@@H](NC(=O)[C@H](C)NC(=O)[C@@H]1CSSC[C@H](NC(=O)[C@@H](N)CCCNC(=N)N)C(=O)N[C@@H](CC(N)=O)C(=O)N[C@@H]([C@@H](C)O)C(=O)N[C@@H](C)C(=O)N[C@@H]([C@@H](C)O)C(=O)N1)[C@@H](C)O)C(=O)N[C@@H](CC(C)C)C(=O)N1CCC[C@H]1C(=O)N1CCC[C@H]1C(=O)N[C@H](C(=O)N[C@@H](CC(N)=O)C(=O)N[C@H](C(=O)NCC(=O)N[C@@H](CO)C(=O)N[C@@H](CC(N)=O)C(=O)N[C@H](C(=O)N1C[C@@H](O)C[C@H]1C(N)=O)[C@@H](C)O)C(C)C)[C@@H](C)O` [PD056] (H-RCNTATCATQRLADFLRHSSNNLK([γGlu-C20 diacid])PILPPTNVGSNT[cisHyp]-NH2; disulfide 2-7), the concentration giving a half-maximal response (EC50) was determined as 0.586 nM.

On to `CC[C@H](C)[C@H](NC(=O)[C@@H]1CCCN1C(=O)[C@H](CN)NC(=O)[C@H](CC(C)C)NC(=O)[C@H](CC(N)=O)NC(=O)[C@H](CC(N)=O)NC(=O)[C@H](CO)NC(=O)[C@H](CO)NC(=O)[C@H](Cc1c[nH]cn1)NC(=O)[C@H](CCCNC(=N)N)NC(=O)[C@H](CC(C)C)NC(=O)[C@H](Cc1ccccc1)NC(=O)[C@H](CC(=O)O)NC(=O)[C@H](C)NC(=O)[C@H](CC(C)C)NC(=O)[C@H](CCCNC(=N)N)NC(=O)[C@H](CCC(N)=O)NC(=O)[C@@H](NC(=O)[C@H](C)NC(=O)[C@@H]1CSSC[C@H](NC(=O)[C@H](CCCCN)NC(=O)CC[C@H](NC(=O)CCCCCCCCCCCCCCCCCCC(=O)O)C(=O)O)C(=O)N[C@@H](CC(N)=O)C(=O)N[C@@H]([C@@H](C)O)C(=O)N[C@@H](C)C(=O)N[C@@H]([C@@H](C)O)C(=O)N1)[C@@H](C)O)C(=O)N[C@@H](CC(C)C)C(=O)N1CCC[C@H]1C(=O)N1CCC[C@H]1C(=O)N[C@H](C(=O)N[C@@H](CC(N)=O)C(=O)N[C@H](C(=O)NCC(=O)N[C@@H](CO)C(=O)N[C@@H](CC(N)=O)C(=O)N[C@H](C(=O)N1CCC[C@H]1C(N)=O)[C@@H](C)O)C(C)C)[C@@H](C)O` [PD168] ({C20 diacid-γGlu}-KCNTATCATQRLADFLRHSSNNL[Dap]PILPPTNVGSNTP-NH2; disulfide 2-7 (inferred)), for which the EC50 was 0.041 nM.

In the case of `CC[C@H](C)[C@H](NC(=O)[C@@H]1CCCN1C(=O)[C@H](CCCCNC(=O)CC[C@H](NC(=O)CCCCCCCCCCCCCCCCCCC(=O)O)C(=O)O)NC(=O)[C@H](CC(C)C)NC(=O)[C@H](CC(N)=O)NC(=O)[C@H](CC(N)=O)NC(=O)[C@H](CO)NC(=O)[C@H](CO)NC(=O)[C@H](Cc1c[nH]cn1)NC(=O)[C@H](CCCNC(=N)N)NC(=O)[C@H](CC(C)C)NC(=O)[C@H](Cc1ccccc1)NC(=O)[C@H](CC(=O)O)NC(=O)[C@H](C)NC(=O)[C@H](CC(C)C)NC(=O)[C@H](CCCNC(=N)N)NC(=O)[C@H](CCC(N)=O)NC(=O)[C@@H](NC(=O)[C@H](C)NC(=O)[C@@H]1CSSC[C@H](N)C(=O)N[C@@H](CC(N)=O)C(=O)N[C@@H]([C@@H](C)O)C(=O)N[C@@H](C)C(=O)N[C@@H]([C@@H](C)O)C(=O)N1)[C@@H](C)O)C(=O)N[C@@H](CC(C)C)C(=O)N1CCC[C@H]1C(=O)N1CCC[C@H]1C(=O)N[C@H](C(=O)N[C@@H](CC(N)=O)C(=O)N[C@H](C(=O)NCC(=O)N[C@@H](CO)C(=O)N[C@@H](CC(N)=O)C(=O)N[C@H](C(=O)N1C[C@H](O)C[C@H]1C(N)=O)[C@@H](C)O)C(C)C)[C@@H](C)O` [PD054] (H-CNTATCATQRLADFLRHSSNNLK([γGlu-C20 diacid])PILPPTNVGSNT[Hyp]-NH2; disulfide 1-6), the EC50 stood at 0.049 nM.

With `CC[C@H](C)[C@H](NC(=O)[C@@H]1CCCN1C(=O)[C@H](CC(N)=O)NC(=O)[C@H](CC(C)C)NC(=O)[C@H](CC(N)=O)NC(=O)[C@H](CC(N)=O)NC(=O)[C@H](CO)NC(=O)[C@H](CO)NC(=O)[C@H](Cc1c[nH]cn1)NC(=O)[C@H](CCCNC(=N)N)NC(=O)[C@H](CC(C)C)NC(=O)[C@H](Cc1ccccc1)NC(=O)[C@H](CC(=O)O)NC(=O)[C@H](C)NC(=O)[C@H](CC(C)C)NC(=O)[C@H](CCCNC(=N)N)NC(=O)[C@H](CCC(N)=O)NC(=O)[C@@H](NC(=O)[C@H](C)NC(=O)[C@@H]1CSSC[C@H](NC(=O)[C@H](CCCCN)NC(=O)CC[C@H](NC(=O)CCCCCCCCCCCCCCCCCCC(=O)O)C(=O)O)C(=O)N[C@@H](CC(N)=O)C(=O)N[C@@H]([C@@H](C)O)C(=O)N[C@@H](C)C(=O)N[C@@H]([C@@H](C)O)C(=O)N1)[C@@H](C)O)C(=O)N[C@@H](CC(C)C)C(=O)N1CCC[C@H]1C(=O)N1CCC[C@H]1C(=O)N[C@H](C(=O)N[C@@H](CC(N)=O)C(=O)N[C@H](C(=O)NCC(=O)N[C@@H](CO)C(=O)N[C@@H](CC(N)=O)C(=O)N[C@H](C(=O)N1CCC[C@H]1C(N)=O)[C@@H](C)O)C(C)C)[C@@H](C)O` [PD165] ({C20 diacid-γGlu}-KCNTATCATQRLADFLRHSSNNLNPILPPTNVGSNTP-NH2; disulfide 2-7 (inferred)), the EC50 is 0.05 nM.

On to `CC[C@H](C)[C@H](NC(=O)[C@@H]1CCCN1C(=O)[C@H](CCCCN)NC(=O)[C@H](CC(C)C)NC(=O)[C@H](CC(N)=O)NC(=O)[C@H](CC(N)=O)NC(=O)[C@H](CO)NC(=O)[C@H](CO)NC(=O)[C@H](Cc1c[nH]cn1)NC(=O)[C@H](CCCNC(=N)N)NC(=O)[C@H](CC(C)C)NC(=O)[C@H](Cc1ccccc1)NC(=O)[C@H](CC(=O)O)NC(=O)[C@H](C)NC(=O)[C@H](CC(C)C)NC(=O)[C@H](CCCNC(=N)N)NC(=O)[C@H](CCC(N)=O)NC(=O)[C@@H](NC(=O)[C@H](C)NC(=O)[C@@H]1CSSC[C@H](NC(=O)[C@@H](N)CCCCNC(=O)CC[C@H](NC(=O)CCCCCCCCCCCCCCCCCCC(=O)O)C(=O)O)C(=O)N[C@@H](CC(N)=O)C(=O)N[C@@H]([C@@H](C)O)C(=O)N[C@@H](C)C(=O)N[C@@H]([C@@H](C)O)C(=O)N1)[C@@H](C)O)C(=O)N[C@@H](CC(C)C)C(=O)N1CCC[C@H]1C(=O)N1CCC[C@H]1C(=O)N[C@H](C(=O)N[C@@H](CC(N)=O)C(=O)N[C@H](C(=O)NCC(=O)N[C@@H](CO)C(=O)N[C@@H](CC(N)=O)C(=O)N[C@H](C(=O)N1C[C@H](O)C[C@H]1C(N)=O)[C@@H](C)O)C(C)C)[C@@H](C)O` [PD072] (H-K([γGlu-C20 diacid])CNTATCATQRLADFLRHSSNNLKPILPPTNVGSNT[Hyp]-NH2; disulfide 2-7), for which the EC50 turned out to be 0.027 nM.
